Among the data in BindingDB's records for doi:10.1021/jm00043a011 (University of Athens, 1994) are Ki values, retold here.

By Ki is commonly meant a measure of affinity in units of concentration, obtained from inhibition or displacement. A high value points to weaker binding.

*1 amine or outer side, *2 acyl side, *3 side chain or, on linkers, in order; H or OH if unused. Where a SMILES comes first, the peptide text is derived from it. [ ]: non-standard residue; d: D form. PheΨ(PO2HCH2)Gly = O=C(CCP(=O)(O)[C@H](Cc1ccccc1)N[*:1])[*:2]; X2 = O=C(CCP(=O)(O)[C@@H](Cc1ccccc1)N[*:1])[*:2]; X1 = O=C(CCP(O)(O)=C(Cc1ccccc1)N[*:1])[*:2]; Nle = CCCC[C@H](N)C(=O)O

A short description of the first test: Binding constant containing a pseudophenylalanine residue.
Take `CCCC[C@@H]1NC(=O)[C@@H]2CCCN2C(=O)CCP(O)(O)=C(Cc2ccccc2)NC(=O)[C@@H]2CCCN2C(=O)CNC1=O` (cyclo(GP[X1]P[Nle])): affinity was put at a Ki of 0.12 µM.

The nature of a further test: Inhibition of bacterial collagenase from corynebacterium rathaii.
`O=C1NCC(=O)N2CCC[C@H]2C(=O)N[C@@H](Cc2ccccc2)P(=O)(O)CCC(=O)N2CCC[C@@H]12` came in with a Ki of 9 µM.

In turn, `COC(=O)[C@@H]1CSSC[C@H](NC(C)=O)C(=O)N2CCC[C@H]2C(=O)N[C@H](Cc2ccccc2)P(=O)(O)CCC(=O)N2CCC[C@H]2C(=O)N1` yielded a Ki of 3 µM. Against the preceding molecule, the Ki is about 3-fold lower.

`COC(=O)[C@H]1CSSC[C@@H](NC(C)=O)C(=O)N2CCC[C@@H]2C(=O)N[C@@H](Cc2ccccc2)P(=O)(O)CCC(=O)N2CCC[C@@H]2C(=O)N1` showed a Ki of 45 µM.

In the case of `CCCC[C@@H]1NC(=O)[C@@H]2CCCN2C(=O)CCP(=O)(O)[C@H](Cc2ccccc2)NC(=O)[C@@H]2CCCN2C(=O)CNC1=O`, the affinity, expressed as Ki, was 0.18 µM.

Regarding `O=C1NCC(=O)N2CCC[C@H]2C(O)N=C(Cc2ccccc2)P(O)(O)=CCC(=O)N2CCC[C@@H]12` (stereo partly drawn), the Ki was determined as 6 µM.

In turn, `C[C@@H]1NC(=O)[C@@H]2CCCN2C(=O)[C@H](C)NC(=O)CCP(=O)(O)[C@H](Cc2ccccc2)NC(=O)[C@@H]2CCCN2C(=O)CNC1=O` (cyclo(AGP[PheΨ(PO2HCH2)Gly]AP)) registered an inhibition constant Ki of 20 µM.

The molecule `C[C@@H]1NC(=O)[C@@H]2CCCN2C(=O)[C@H](C)NC(=O)CCP(=O)(O)[C@@H](Cc2ccccc2)NC(=O)[C@@H]2CCCN2C(=O)CNC1=O` (cyclo(AGP[X2]AP)) had a Ki of 12 µM. Compared with the last molecule, the Ki is about 1.7-fold lower.

As to `CCCC[C@@H]1NC(=O)[C@@H]2CCCN2C(=O)CCP(O)(O)=C(Cc2ccccc2)NC(=O)[C@@H]2CCCN2C(=O)CNC1=O` (cyclo(GP[X1]P[Nle])), affinity was put at a Ki of 0.12 µM. Compared with the last molecule, the Ki is about 100-fold lower.

For `CCCC[C@@H]1NC(=O)[C@@H]2CCCN2C(=O)CCP(=O)(O)[C@H](Cc2ccccc2)NC(=O)[C@@H]2CCCN2C(=O)[C@H](CO)NC1=O` (cyclo([Nle]SP[PheΨ(PO2HCH2)Gly]P)), the inhibition constant Ki amounted to 40 µM.

As for `CCCC[C@@H]1NC(=O)[C@@H]2CCCN2C(=O)CCP(O)(O)=C(Cc2ccccc2)NC(=O)[C@@H]2CCCN2C(=O)[C@H](CO)NC1=O` (cyclo([Nle]SP[X1]P)), the Ki stood at 25 µM. Compared with the last molecule, the Ki is about 1.6-fold lower.

In turn, `CCCCC1NC(=O)[C@H]2CCCN2C(=O)CCP(=O)(O)[C@@H](Cc2ccccc2)NC(=O)[C@@H]2CCCN2C(=O)CCNC1=O` (stereo partly drawn) [(6S,9S,22R)-6-Benzyl-19-butyl-5-hydroxy-5-oxo-1,7,13,17,20-pentaaza-5lambda*5*-phospha-tricyclo[20.3.0.0*9,13*]pentacosane-2,8,14,18,21-pentaone] came in with a Ki of 0.09 µM.

The nature of the next test: Binding constant containing a pseudophenylalanine residue. This is another data set of the same source.
The molecule `CCCCC1NC(=O)[C@H]2CCCN2C(=O)CCP(=O)(O)[C@@H](Cc2ccccc2)NC(=O)[C@@H]2CCCN2C(=O)CCNC1=O` (stereo partly drawn) [(6S,9S,22R)-6-Benzyl-19-butyl-5-hydroxy-5-oxo-1,7,13,17,20-pentaaza-5lambda*5*-phospha-tricyclo[20.3.0.0*9,13*]pentacosane-2,8,14,18,21-pentaone] showed an inhibition constant Ki of 0.09 µM.
